Measured values taken from ChEMBL document CHEMBL1201862, “PubChem BioAssay data set” (2004).
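A five-concentration, 48-hour dose response in 96-well plates underlies each endpoint, interpolated linearly between surrounding concentrations. At the GI50, growth is halved.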 The source made the active and inactive calls. Rule as the data show it: active = GI50 up to about 1.1 µM and inactive = higher.

How the values were obtained:
Test in all cases: growth of human tumour cells (NCI), 48 h
UACC-62 = system: UACC-62
SK-MEL-28 = system: SK-MEL-28
SN12C = system: SN12C
786-0 = system: 786-0
A549 = system: A549
SW-620 = system: SW-620
A498 = system: A498
TK-10 = system: TK-10
SF-539 = system: SF-539
HCC 2998 = system: HCC 2998
MOLT-4 = system: MOLT-4
ACHN = system: ACHN
HT-29 = system: HT-29
SK-MEL-2 = system: SK-MEL-2
IGROV-1 = system: IGROV-1
KM12 = system: KM12
NCI-H522 = system: NCI-H522
PC-3 = system: PC-3
Hs-578T = system: Hs-578T
MDA-MB-231 = system: MDA-MB-231

Measured: GI50

O=C(NCC#CCO)C(F)(F)F
inactive: UACC-62 > 100 µM | SK-MEL-28 > 100 µM | SN12C > 100 µM | 786-0 > 100 µM | A549 > 100 µM | SW-620 > 100 µM | A498 > 100 µM | TK-10 > 100 µM | SF-539 > 100 µM | HCC 2998 > 100 µM | MOLT-4 > 100 µM | ACHN > 100 µM | HT-29 > 100 µM | SK-MEL-2 > 100 µM | IGROV-1 > 100 µM | KM12 > 100 µM | NCI-H522 > 100 µM

Cc1nc2c(N)ncnc2o1
inactive: UACC-62 > 100 µM | SK-MEL-28 > 100 µM | SN12C > 100 µM | 786-0 > 100 µM | A549 > 100 µM | SW-620 > 100 µM | A498 > 100 µM | TK-10 > 100 µM | SF-539 > 100 µM | HCC 2998 > 100 µM | MOLT-4 > 100 µM | ACHN > 100 µM | HT-29 > 100 µM | SK-MEL-2 > 100 µM | IGROV-1 > 100 µM | KM12 > 100 µM | NCI-H522 > 100 µM

Cc1ccc(C(=O)N/N=C(\N=N\c2ccccc2C(=O)O)c2ccc(N(C)C)cc2)cc1
inactive: SK-MEL-28 > 100 µM | SN12C > 100 µM | 786-0 > 100 µM | A549 98.2 µM | SW-620 > 100 µM | PC-3 > 100 µM | TK-10 > 100 µM | SF-539 > 100 µM | Hs-578T > 100 µM | HCC 2998 71.4 µM | MOLT-4 71.4 µM | HT-29 > 100 µM | SK-MEL-2 > 100 µM | MDA-MB-231 > 100 µM | IGROV-1 > 100 µM | KM12 42.9 µM | NCI-H522 46.3 µM

COc1ccccc1/N=C1\SCCN1C(=S)Nc1ccc(S(=O)(=O)/N=C/N(C)C)cc1
inactive: UACC-62 25.7 µM | SK-MEL-28 30.1 µM | SN12C 50.9 µM | 786-0 44.2 µM | A549 > 100 µM | SW-620 44.9 µM | A498 > 100 µM | PC-3 > 100 µM | TK-10 36 µM | SF-539 21.9 µM | HCC 2998 > 100 µM | MOLT-4 22.6 µM | ACHN 32.4 µM | MDA-MB-231 > 100 µM | KM12 > 100 µM

O=[N+]([O-])C(=C(c1ccccc1)c1ccccc1)[N+](=O)[O-]
inactive: UACC-62 3.79 µM | SK-MEL-28 7.98 µM | SN12C 15.5 µM | 786-0 14.5 µM | A549 23.1 µM | SW-620 11.4 µM | A498 14.8 µM | TK-10 18.6 µM | SF-539 13.6 µM | HCC 2998 11.4 µM | MOLT-4 3.32 µM | ACHN 12.8 µM | HT-29 > 10 µM | SK-MEL-2 2.43 µM | IGROV-1 5.96 µM | KM12 15.5 µM | NCI-H522 15.4 µM

Fc1cc(-c2cc(-c3ccccc3)n[nH]2)c(Cl)cc1Cl
inactive: SK-MEL-28 > 100 µM | SN12C > 100 µM | 786-0 > 100 µM | A549 > 100 µM | SW-620 > 100 µM | PC-3 > 100 µM | TK-10 > 100 µM | SF-539 23 µM | Hs-578T > 100 µM | MOLT-4 16.9 µM | ACHN 6.35 µM | HT-29 > 100 µM | SK-MEL-2 > 100 µM | MDA-MB-231 55.5 µM | IGROV-1 1.77 µM | KM12 > 100 µM | NCI-H522 > 100 µM

CC(=O)Nc1ccc(OCC(O)CO)cc1 (centres undefined)
inactive: UACC-62 > 100 µM | SK-MEL-28 > 100 µM | SN12C > 100 µM | 786-0 25.1 µM | A549 > 100 µM | SW-620 8.3 µM | A498 > 100 µM | TK-10 > 100 µM | SF-539 > 100 µM | HCC 2998 > 100 µM | MOLT-4 > 100 µM | ACHN > 100 µM | HT-29 > 100 µM | SK-MEL-2 > 100 µM | IGROV-1 > 100 µM | KM12 > 100 µM | NCI-H522 > 100 µM

NC1=C(N2CCOCC2)C(=O)NC2=N/C(=C\c3ccccc3)C(=O)N21
inactive: SK-MEL-28 > 100 µM | SN12C > 100 µM | 786-0 > 100 µM | A549 > 100 µM | SW-620 > 100 µM | A498 64.3 µM | TK-10 > 100 µM | SF-539 76.7 µM | Hs-578T > 100 µM | HCC 2998 > 100 µM | MOLT-4 35.8 µM | ACHN > 100 µM | HT-29 > 100 µM | MDA-MB-231 > 100 µM | IGROV-1 > 100 µM | KM12 > 100 µM | NCI-H522 > 100 µM
